Assay results: PubChem BioAssay AID248 (DTP/NCI, 2004)
Values joined by “and” are separate entries in the source; they are usually repeats but may differ in a detail not shown here. Equal values may be shown once. Inconclusive results and toxic doses are left out. No stated cut-off is given here; in the data, active means T/C of 150% or more; inactive means T/C below 125%.

Tested on: L1210 leukemia ip in BDF1 mice, survival T/C
Assay: NCI In Vivo Anticancer Drug Screen. Data for tumor model L1210 Leukemia (intraperitoneal) in B6D2F1 (BDF1) mice
Conditions: endpoint: mean survival time, higher = longer survival
Procedure, shortened: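 Each compound was tested against a transplantable tumor grown in mice. The endpoint was survival, with treated animals benchmarked against vehicle controls as a simple ratio.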

[1] = dose: 100.0 mg/kg/injection, schedule: Q01DX001 (ip), vehicle: saline with Tween-80
[2] = dose: 100.0 mg/kg/injection, schedule: Q04DX003 (ip), vehicle: Klucel (hydroxypropylcellulose) (HPC)
[3] = dose: 200.0 mg/kg/injection, schedule: Q04DX003 (ip), vehicle: Klucel (hydroxypropylcellulose) (HPC)
[4] = dose: 100.0 mg/kg/injection, schedule: Q01DX009 (ip), vehicle: Klucel (hydroxypropylcellulose) (HPC)
[5] = dose: 200.0 mg/kg/injection, schedule: Q01DX009 (ip), vehicle: Klucel (hydroxypropylcellulose) (HPC)
[6] = dose: 400.0 mg/kg/injection, schedule: Q01DX009 (ip), vehicle: Klucel (hydroxypropylcellulose) (HPC)
[7] = dose: 400.0 mg/kg/injection, schedule: Q04DX003 (ip), vehicle: Klucel (hydroxypropylcellulose) (HPC)
[8] = dose: 100.0 mg/kg/injection, schedule: Q01DX009 (ip), vehicle: saline with Tween-80
[9] = dose: 100.0 mg/kg/injection, schedule: Q04DX003 (ip), vehicle: saline with Tween-80
[10] = dose: 200.0 mg/kg/injection, schedule: Q01DX009 (ip), vehicle: saline with Tween-80
[11] = dose: 200.0 mg/kg/injection, schedule: Q04DX003 (ip), vehicle: saline with Tween-80
[12] = dose: 400.0 mg/kg/injection, schedule: Q01DX009 (ip), vehicle: saline with Tween-80
[13] = dose: 400.0 mg/kg/injection, schedule: Q04DX003 (ip), vehicle: saline with Tween-80
[14] = dose: 75.0 mg/kg/injection, schedule: Q01DX001 (ip), vehicle: saline
[15] = dose: 150.0 mg/kg/injection, schedule: Q01DX001 (ip), vehicle: saline
[16] = dose: 300.0 mg/kg/injection, schedule: Q01DX001 (ip), vehicle: saline

Measured: T/C

O=C/C(Br)=C(\Br)C(=O)O
inactive: dose: 12.5 mg/kg/injection, schedule: Q01DX001 (ip), vehicle: carboxymethylcellulose (CMC) 93 % of control | dose: 12.5 mg/kg/injection, schedule: Q01DX009 (ip), vehicle: carboxymethylcellulose (CMC) 95 % of control | dose: 12.5 mg/kg/injection, schedule: Q04DX002 (ip), vehicle: carboxymethylcellulose (CMC) 97 % of control | dose: 12.5 mg/kg/injection, schedule: Q04DX003 (ip), vehicle: carboxymethylcellulose (CMC) 97 % of control | dose: 25.0 mg/kg/injection, schedule: Q01DX001 (ip), vehicle: carboxymethylcellulose (CMC) 93 % of control | dose: 25.0 mg/kg/injection, schedule: Q01DX009 (ip), vehicle: carboxymethylcellulose (CMC) 98 % of control and 92 % of control | dose: 25.0 mg/kg/injection, schedule: Q04DX002 (ip), vehicle: carboxymethylcellulose (CMC) 93 % of control and 98 % of control | dose: 25.0 mg/kg/injection, schedule: Q04DX003 (ip), vehicle: carboxymethylcellulose (CMC) 103 % of control | dose: 50.0 mg/kg/injection, schedule: Q01DX001 (ip), vehicle: carboxymethylcellulose (CMC) 106 % of control | dose: 50.0 mg/kg/injection, schedule: Q01DX009 (ip), vehicle: carboxymethylcellulose (CMC) 96 % of control | dose: 50.0 mg/kg/injection, schedule: Q04DX002 (ip), vehicle: carboxymethylcellulose (CMC) 90 % of control

CC(=O)CC(OC(=O)c1cc([N+](=O)[O-])cc([N+](=O)[O-])c1)(C(F)(F)F)C(F)(F)F
inactive: dose: 6.25 mg/kg/injection, schedule: Q01DX009 (ip), vehicle: Klucel (hydroxypropylcellulose) (HPC) 93 % of control | dose: 12.5 mg/kg/injection, schedule: Q01DX009 (ip), vehicle: Klucel (hydroxypropylcellulose) (HPC) 88 % of control | dose: 25.0 mg/kg/injection, schedule: Q01DX009 (ip), vehicle: Klucel (hydroxypropylcellulose) (HPC) 88 % of control

Cc1nc(N)[nH]c(=O)c1CCCNC(=O)c1ccc(CBr)cc1
inactive: dose: 25.0 mg/kg/injection, schedule: Q01DX001 (ip), vehicle: saline with Tween-80 95 % of control | dose: 50.0 mg/kg/injection, schedule: Q01DX001 (ip), vehicle: saline with Tween-80 88 % of control | [1] 97 % of control

CCOC(=O)C1C(=O)NC(C(=O)OCC)(C(=O)OCC)C1C(C)C (stereo unspecified)
inactive: dose: 50.0 mg/kg/injection, schedule: Q04DX003 (ip), vehicle: Klucel (hydroxypropylcellulose) (HPC) 96 % of control | [2] 100 % of control | [3] 96 % of control

CC(=O)OC12CCCC(=O)C1C1CC/C=C\CCC12 (stereo unspecified)
inactive: dose: 100.0 mg/kg/injection, schedule: Q01DX001 (ip), vehicle: Klucel (hydroxypropylcellulose) (HPC) 111 % of control | [4] 98 % of control | [2] 95 % of control | dose: 200.0 mg/kg/injection, schedule: Q01DX001 (ip), vehicle: Klucel (hydroxypropylcellulose) (HPC) 108 % of control | [5] 98 % of control | [3] 98 % of control | dose: 400.0 mg/kg/injection, schedule: Q01DX001 (ip), vehicle: Klucel (hydroxypropylcellulose) (HPC) 102 % of control | [6] 96 % of control | [7] 95 % of control

O=C(O)CCOc1ccccc1[N+](=O)[O-]
inactive: dose: 37.5 mg/kg/injection, schedule: Q01DX009 (ip), vehicle: saline with Tween-80 91 % of control | dose: 75.0 mg/kg/injection, schedule: Q01DX009 (ip), vehicle: saline with Tween-80 91 % of control | [4] 97 % of control | dose: 150.0 mg/kg/injection, schedule: Q01DX009 (ip), vehicle: saline with Tween-80 88 % of control | [5] 87 % of control | [6] 95 % of control

CC(=O)c1cccc(NC(=O)Oc2ccc(-c3ccccc3)cc2)c1
inactive: [1] 98 % of control | [8] 100 % of control and 90 % of control | dose: 100.0 mg/kg/injection, schedule: Q04DX002 (ip), vehicle: saline with Tween-80 96 % of control and 98 % of control | [9] 90 % of control | dose: 200.0 mg/kg/injection, schedule: Q01DX001 (ip), vehicle: saline with Tween-80 90 % of control | [10] 95 % of control | dose: 200.0 mg/kg/injection, schedule: Q04DX002 (ip), vehicle: saline with Tween-80 93 % of control and 98 % of control | [11] 92 % of control | [12] 90 % of control | dose: 400.0 mg/kg/injection, schedule: Q04DX002 (ip), vehicle: saline with Tween-80 91 % of control | [13] 93 % of control

O=C1Cc2cccc3c2C(C1)CN3C(=O)c1ccccc1 (stereo unspecified)
inactive: [8] 90 % of control | [9] 100 % of control | [10] 88 % of control | [11] 94 % of control | [12] 97 % of control | [13] 95 % of control

COC(=O)CS(=O)(=O)C/C(=N\Nc1ccccc1)c1ccccc1
inactive: [14] 104 % of control | [15] 92 % of control | [16] 98 % of control

Cc1ccc(N=C(N)N=C(N)N)cc1C
inactive: dose: 75.0 mg/kg/injection, schedule: Q01DX001 (ip), vehicle: carboxymethylcellulose (CMC) 97 % of control | dose: 150.0 mg/kg/injection, schedule: Q01DX001 (ip), vehicle: carboxymethylcellulose (CMC) 97 % of control | dose: 300.0 mg/kg/injection, schedule: Q01DX001 (ip), vehicle: carboxymethylcellulose (CMC) 91 % of control

COc1ccc(NC(=O)Nc2cccc(C)c2C)cc1
inactive: dose: 100.0 mg/kg/injection, schedule: Q01DX009 (ip), vehicle: gum acacia 96 % of control | dose: 100.0 mg/kg/injection, schedule: Q04DX003 (ip), vehicle: gum acacia 99 % of control | dose: 200.0 mg/kg/injection, schedule: Q01DX009 (ip), vehicle: gum acacia 97 % of control | dose: 200.0 mg/kg/injection, schedule: Q04DX003 (ip), vehicle: gum acacia 91 % of control | dose: 400.0 mg/kg/injection, schedule: Q01DX009 (ip), vehicle: gum acacia 94 % of control | dose: 400.0 mg/kg/injection, schedule: Q04DX003 (ip), vehicle: gum acacia 89 % of control

OC(c1ccccc1)(c1ccccc1)c1ccsc1
inactive: dose: 50.0 mg/kg/injection, schedule: Q01DX009 (ip), vehicle: saline with Tween-80 86 % of control | [8] 86 % of control

NC(=O)C1(c2ccccc2)CC1
inactive: dose: 100.0 mg/kg/injection, schedule: Q01DX009 (ip), vehicle: saline 100 % of control | dose: 100.0 mg/kg/injection, schedule: Q04DX003 (ip), vehicle: saline 88 % of control | dose: 200.0 mg/kg/injection, schedule: Q01DX009 (ip), vehicle: saline 103 % of control | dose: 200.0 mg/kg/injection, schedule: Q04DX003 (ip), vehicle: saline 93 % of control | dose: 400.0 mg/kg/injection, schedule: Q04DX003 (ip), vehicle: saline 107 % of control

CN(C)c1ccc(CNc2cccc(Cl)c2Cl)cc1
inactive: [2] 94 % of control | [3] 96 % of control | [7] 97 % of control

O=[N+]([O-])/C(N=Nc1ccc(Br)cc1)=N\Nc1ccc(Br)cc1
inactive: dose: 75.0 mg/kg/injection, schedule: Q01DX001 (ip), vehicle: acetone 87 % of control | dose: 150.0 mg/kg/injection, schedule: Q01DX001 (ip), vehicle: acetone 89 % of control

CC1=CC(=O)C2(C)C(C)=C(C)C12C (stereo unspecified)
inactive: dose: 50.0 mg/kg/injection, schedule: Q04DX003 (ip), vehicle: saline with Tween-80 99 % of control | [14] 105 % of control | [9] 94 % of control | [15] 111 % of control | [16] 97 % of control
